Reference: patent US20230091047A1 (priority 2019, published 2023)
Read-outs that look alike come from different tables or passages of the source.

What was measured:
[1] = tested on: HBV (HepG2.117 cell line, inducibly HBV producing); test: Anti-HBV activity: intracellular HBV DNA by real-time PCR in HepG2.117 cells after 3 days of treatment; format: cell-based, hepatitis B virus
How it was run: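 First, HBV replication is induced in HepG2.117 cells by doxycycline absence. Next, serially diluted compound is added for 3 days. Finally, intracellular HBV DNA is quantified by HBV-specific real-time PCR.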

in vitro = format: cell-based; details: human, HepG2 or HepG2.117 cells, mean value
How it was run: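 Luminescent ATP quantitation served as the viability endpoint following a 3- or 4-day incubation with test compounds.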

[2] = Hepatitis B virus, HepG2.117, 72 h, HepG2.117 cells, intracellular HBV DNA by real-time PCR, 3 days of treatment, mean value; read-out: EC50 (μM, mean value)
[3] = ATPlite, 3-days incubation (not marked with *)
[4] = Hepatitis B virus, HepG2.117, 72 h, HepG2.117 cells, 3 days of treatment, intracellular HBV DNA by real-time PCR; mean value; read-out: EC50 (μM, mean value)
[5] = 3-days incubation (unmarked values), ATPlite

SMILES | EC50 [1, 2] [µM] | CC50 at 3 days (in vitro; [3]) [µM] | EC50 [1, 4] [µM] | CC50 at 3 days (in vitro; [5]) [µM] | CC50 at 3 days (in vitro; 3-days incubation (unmarked values), ATPlite viability) [µM]
CNC(=O)c1ccc(-n2c(N[C@@H](C)c3ccc(OC)c(OC)c3)nc3c(c2=O)C[C@@H](C)N(C(=O)c2ccc(Cl)c(Cl)c2)C3)cc1 (single isomer, unassigned) [Compound C415b] | 0.12 | 27.6 |  |  | 
CNC(=O)c1ccc(-n2c(NCc3n[nH]c(C)n3)nc3c(c2=O)C[C@@H](C)N(C(=O)c2ccc(Cl)c(Cl)c2)C3)cc1 [Compound C541] | > 25 | > 50 |  |  | 
CNC(=O)c1ccc(-n2c(N[C@H](C)c3ccnn3C)nc3c(c2=O)C[C@@H](C)N(C(=O)c2ccc(Cl)c(Cl)c2)C3)cc1 (single isomer, unassigned) [Compound C372a] |  |  | 5.42 | > 50 | 
CNC(=O)c1ccc(-n2c(NC(C)C)nc3c(c2=O)C[C@@H](C)N(C(=O)c2cc4ccc(OC)cc4n2C)C3)cc1 [Compound C516] | 2.68 | > 50 |  |  | 
CNC(=O)c1cc(-n2c(N[C@@H](C)c3ccc(C(F)(F)F)cc3)nc3c(c2=O)C[C@@H](C)N(C(=O)c2ccc(Cl)c(Cl)c2)C3)n(C)n1 [Compound C534] | 0.14 | > 50 |  |  | 
Cc1c[nH]c(-c2ccc(-n3c(NC(C)C)nc4c(c3=O)C[C@@H](C)N(C(=O)c3ccc(Cl)c(Cl)c3)C4)cc2)n1 [Compound C250, (6R)-7-(3,4-dichlorobenzoyl)-6-methyl-3-[4-(4-methyl-1H-imidazol-2-yl)phenyl]-2-[(propan-2-yl)amino]-5,6,7,8-tetrahydropyrido[3,4-d]pyrimidin-4(3H)-one] |  |  | 0.07 | 8.9 | 
CNC(=O)c1nnc(-n2c(NC(C)C)nc3c(c2=O)C[C@@H](C)N(C(=O)c2ccc(Cl)c(Cl)c2)C3)[nH]1 [Compound C374] |  |  | 1.49 | > 50 | 
CNC(=O)c1ccc(-n2c(NCCCc3nc(=O)[nH][nH]3)nc3c(c2=O)C[C@@H](C)N(C(=O)c2ccc(Cl)c(Cl)c2)C3)cc1 [Compound C599] | > 25 | > 50 |  |  | 
CC(C)Nc1nc2c(c(=O)n1-c1cccc(-n3ccnn3)c1)C[C@@H](C)N(C(=O)c1ccc(Cl)c(Cl)c1)C2 [Compound C442] | 0.21 | > 50 |  |  | 
COc1ccccc1-n1c(NC2CCC2)nc2c(c1=O)CCN(C(=O)c1ccc(Cl)c(Cl)c1)C2 [Compound C32, 2-(cyclobutylamino)-7-(3,4-dichlorobenzoyl)-3-(2-methoxyphenyl)-5,6,7,8-tetrahydropyrido[3,4-d]pyrimidin-4(3H)-one] |  |  | 19.9 | 29.5 | 
CC(C)Nc1nc2c(c(=O)n1-c1ccc(-c3ncc[nH]3)cc1)C[C@@H](C)N(C(=O)c1ccc(Cl)c(Cl)c1)C2 [Compound C196, (6R)-7-(3,4-dichlorobenzoyl)-3-[4-(1H-imidazol-2-yl)phenyl]-6-methyl-2-[(propan-2-yl)amino]-5,6,7,8-tetrahydropyrido[3,4-d]pyrimidin-4(3H)-one] |  |  | 0.17 | > 43 | 
CNC(=O)c1ccc(-n2c(N[C@@H]3CCOc4ccccc43)nc3c(c2=O)C[C@@H](C)N(C(=O)c2ccc(Cl)c(Cl)c2)C3)cc1 (single isomer, unassigned) [Compound C526a] | 0.28 | > 50 |  |  | 
O=C(c1ccc(Cl)c(Cl)c1)N1CCc2c(nc(NC(CO)CO)[nH]c2=O)C1 [Compound C98, 7-(3,4-dichlorobenzoyl)-2-[(1,3-dihydroxypropan-2-yl)amino]-5,6,7,8-tetrahydropyrido[3,4-d]pyrimidin-4(3H)-one] |  |  | 36.5 | > 50 | 
CNC(=O)c1ccc(-n2c(N[C@@H](C)c3ccccc3OC(F)F)nc3c(c2=O)C[C@@H](C)N(C(=O)c2ccc(Cl)c(Cl)c2)C3)cc1 (single isomer, unassigned) [Compound C438b] | 0.15 | 29.9 |  |  | 
CNC(=O)c1ccc(-n2c(NC[C@@H](C)c3cccc(OC)c3)nc3c(c2=O)C[C@@H](C)N(C(=O)c2ccc(Cl)c(Cl)c2)C3)cc1 (single isomer, unassigned) [Compound C436b] | 0.36 | 22.3 |  |  | 
CC(C)Nc1nc2c(c(=O)n1-c1ccc(S(C)(=O)=O)cc1)CCN(C(=O)c1cc3cc(F)ccc3[nH]1)C2 [Compound C136, 7-(5-fluoro-1H-indole-2-carbonyl)-3-[4-(methanesulfonyl)phenyl]-2-[(propan-2-yl)amino]-5,6,7,8-tetrahydropyrido[3,4-d]pyrimidin-4(3H)-one] |  |  | 0.24 | > 50 | 

SMILES | EC50 [1, 2] [µM] | CC50 at 3 days (in vitro; [3]) [µM] | EC50 [1, 4] [µM] | CC50 at 3 days (in vitro; [5]) [µM] | CC50 at 3 days (in vitro; 3-days incubation (unmarked values), ATPlite viability) [µM]
CNC(=O)c1ccc(-n2c(N[C@@H](C)c3ccccc3)nc3c(c2=O)C[C@@H](C)N(C(=O)c2ccc(Cl)c(Cl)c2)C3)cc1 [Compound C253, 4-[(6R)-7-(3,4-dichlorobenzoyl)-6-methyl-4-oxo-2-{[(1S)-1-phenylethyl]amino}-5,6,7,8-tetrahydropyrido[3,4-d]pyrimidin-3(4H)-yl]-N-methylbenzamide] |  |  | 0.1 | 22.9 | 
CNC(=O)c1ccc(-n2c(NC(C)C)nc3c(c2=O)C[C@@H](C)N(C(=O)c2ccc(C)c(Cl)c2)C3)cc1 [Compound C514] | 0.61 | > 50 |  |  | 
COc1ccccc1-n1c(NCc2ccc(S(C)(=O)=O)cc2)nc2c(c1=O)CCN(C(=O)c1ccc(Cl)c(Cl)c1)C2 [Compound C27, 7-(3,4-dichlorobenzoyl)-2-({[4-(methanesulfonyl)phenyl]methyl}amino)-3-(2-methoxyphenyl)-5,6,7,8-tetrahydropyrido[3,4-d]pyrimidin-4(3H)-one] |  |  | 1.98 | > 50 | 
CNC(=O)c1ccc(-n2c(NC(C)C)nc3c(c2=O)C[C@@H](C)N(C(=O)c2ccc4c(c2)[nH]c(=O)n4C)C3)cc1 [Compound C510] | 9.42 | > 50 |  |  | 
CNC(=O)c1ccc(-n2c(N3CC4CC3C4)nc3c(c2=O)C[C@@H](C)N(C(=O)c2ccc(Cl)c(C(F)(F)F)c2)C3)c(Cl)c1 (single isomer, unassigned) [Compound C701a] |  |  | 0.04 |  | > 50
CC(Nc1nc2c(c(=O)n1-c1ccc(S(C)(=O)=O)cc1)C[C@@H](C)N(C(=O)c1ccc(Cl)c(Cl)c1)C2)C1CC1 (stereo partly drawn) [Compound C199, (6R)-2-[(1-cyclopropylethyl)amino]-7-(3,4-dichlorobenzoyl)-3-[4-(methanesulfonyl)phenyl]-6-methyl-5,6,7,8-tetrahydropyrido[3,4-d]pyrimidin-4(3H)-one] |  |  | 0.3 | > 50 | 
CC(C)Nc1nc2c(c(=O)n1[C@H]1CC[C@H](C(=O)O)CC1)C[C@@H](C)N(C(=O)c1ccc(Cl)c(Cl)c1)C2 [Compound C254, trans-4-[(6R)-7-(3,4-dichlorobenzoyl)-6-methyl-4-oxo-2-[(propan-2-yl)amino]-5,6,7,8-tetrahydropyrido[3,4-d]pyrimidin-3(4H)-yl]cyclohexane-1-carboxylic acid] |  |  | 1.99 | > 50 | 
CNC(=O)c1ccc(-n2c(N[C@H](C)c3ccc(F)cc3F)nc3c(c2=O)C[C@@H](C)N(C(=O)c2ccc(Cl)c(Cl)c2)C3)cc1 (single isomer, unassigned) [Compound C689a] | 0.2 | 16.7 |  |  | 
CNC(=O)c1cnc(-n2c(N[C@@H](C)c3ccc(F)cc3)nc3c(c2=O)C[C@@H](C)N(C(=O)c2ccc(Cl)c(Cl)c2)C3)cn1 [Compound C614] | 0.09 | > 50 |  |  | 
CC(C)Nc1nc2c(c(=O)n1-c1ccc(S(C)(=O)=O)cc1)C[C@H](C)N(C(=O)c1ccc(Cl)c(Cl)c1)C2 [Compound C100B, (6S)-7-(3,4-dichlorobenzoyl)-3-[4-(methanesulfonyl)phenyl]-6-methyl-2-[(propan-2-yl)amino]-5,6,7,8-tetrahydropyrido[3,4-d]pyrimidin-4(3H)-one] |  |  | 10.1 | > 50 | 
CC(C)Nc1nc2c(c(=O)n1-c1ccc(S(C)(=O)=O)cc1)CCN(C(=O)c1ccc3cncn3c1)C2 [Compound C356] |  |  | > 50 | > 50 | 
CNC(=O)c1cc(-n2c(N[C@@H](C)c3ccc(F)cc3)nc3c(c2=O)C[C@@H](C)N(C(=O)c2ccc(Cl)c(Cl)c2)C3)nn1C [Compound C624] | 0.06 | > 50 |  |  | 
COc1ccc(CN(CCCO)c2nc3c(c(=O)[nH]2)CCN(C(=O)c2ccc(Cl)c(Cl)c2)C3)cc1 [Compound C90, 7-(3,4-dichlorobenzoyl)-2-{(3-hydroxypropyl)[(4-methoxyphenyl)methyl]amino}-5,6,7,8-tetrahydropyrido[3,4-d]pyrimidin-4(3H)-one] |  |  | 8 | 21.2 | 
CNC(=O)c1ccc(-n2c(N[C@H]3CCOc4cc(OC)ccc43)nc3c(c2=O)C[C@@H](C)N(C(=O)c2ccc(Cl)c(Cl)c2)C3)cc1 (single isomer, unassigned) [Compound C527b] | 0.65 | > 50 |  |  | 
CNC(=O)c1ccc(-n2c(NCc3nnn(C)c3C(F)F)nc3c(c2=O)C[C@@H](C)N(C(=O)c2ccc(Cl)c(Cl)c2)C3)cc1 [Compound C552] | > 25 | > 50 |  |  | 
CNC(=O)c1ccc(-n2c(NC(C)c3ccc(OC)cc3)nc3c(c2=O)C[C@@H](C)N(C(=O)c2ccc(Cl)c(Cl)c2)C3)cc1 (stereo partly drawn) [Compound C346, 4-[(6R)-7-(3,4-dichlorobenzoyl)-2-{[1-(4-methoxyphenyl)ethyl]amino}-6-methyl-4-oxo-5,6,7,8-tetrahydropyrido[3,4-d]pyrimidin-3(4H)-yl]-N-methylbenzamide] |  |  | 0.13 | 36.3 | 
